According to patent publication US20090252672A1, “NASAL DELIVERY OF THERAPEUTIC AGENTS USING TIGHT JUNCTION AGONISTS” (priority 2006, published 2009):
Where two headings read alike, the source gives them in different places.

Columns and labels:
[1] = in vitro; conditions: human, Caco-2
Procedure: Caco-2 cells, a human colon adenocarcinoma cell line, were grown as monolayers for 21 days in Dulbecco's Modified Eagle's medium (1X) containing 10% fetal bovine serum, 1% non-essential amino acid solution, 1% penicillin-streptomycin and 2% glutamine at 37° C. in an atmosphere of 5% CO2 and 90% relative humidity. Caco-2 cells from passage numbers of 51 to 52 were seeded on permeable polycarbonate inserts (1 cm^2, 0.4 μm pore size) in 12 Transwell plates at a density of 80,000 cells/cm^2. The inserts were fed with media every other day until they were used for experiments 21 days after the initial seeding. The integrity of the cell monolayers was evaluated by measuring the transepithelial electrical resistance (TEER) values before the study using a Millicell®-ERS meter (Millipore Corp., Bedford, Mass.) with chopstick electrodes. […] The cell monolayers were washed twice with PBS prior to the transport experiments. After the wash, the plates were incubated for 30 min at 37° C., and the integrity of the cell monolayers was evaluated by measurement of TEER. The cell inserts were used in transport experiments when the TEER values reached >300 Ωcm^2.
The insert was moved to a well containing fresh PBS every 10 min for 40 min.
Papp was calculated according to the following equation: […]
The percent enhancement ratio, ER(%), for the Papp was calculated from the formula, […]

[2] = Intra-nasal administration of salmon calcitonin (sCT) with or without AT1002, plasma sCT by LC-MS; type: in vivo, Sprague-Dawley rats; conditions: for Tmax: 15 mg/kg
Procedure: Jugular cannulated Sprague-Dawley rats randomly received formulations of salmon calcitonin. The formulations administered intra-nasally to rats were dextrose solution of sCT (15 mg/kg) with or without various doses of AT1002 (2, 5, and 10 mg/kg). Doses were then slowly administered intra-nasally with a volume dose of 400 μl kg rat. Blood samples were drawn via the jugular cannula at each time point, and were deproteinized by the addition of acetonitrile. The concentration of sCT in the plasma was determined by LC-MS.

[3] = Intranasal administration of [14C] PEG4000 or [14C] inulin with/without AT1002, plasma concentration; type: in vivo, Sprague-Dawley rats; conditions: inulin with AT1002 10 mg/kg, p<0.05
Description: Male Sprague-Dawley rats cannulated in the jugular vein were randomly assigned to receive radiolabelled paracellular markers, [^14C] PEG4000 or [^14C] inulin, with/without AT1002, for each intranasal study.

[4] = Intranasal administration of [3H]-AZT or [3H]-saquinavir with AT1002, uptake into blood plasma
Procedure: Blood samples (250 μl) were drawn into heparinized syringes at 10 or 15 min into polypropylene tubes, centrifuged (13,000 rpm for 10 min) immediately and plasma was obtained. Scintillation cocktail was added and samples were analyzed for radioactivity by Beckman Coulter LS 6500 multi-purpose Scintillation counter.
In a volume of 20 μl, 120 μCi/kg of [^3H]-AZT was administered to FVB mice of 20-25 g each. Other FVB mice received the same amount of AZT administered in the presence of AT1002(2 mg/kg). Blood samples were taken at 10 or 15 minutes.
[hu 3H]-Saquinavir (120 μCi/kg) was administered in a 20 μl volume intranasally to FVB mice in the absence or presence of AT1002 (5 mg/kg).

[5] = molecular target: T1, protease activated receptor-2 (PAR-2) receptor (Mus musculus, UniProt P55086); conditions: intracolonic infusion of a 5 μg dose; cited from earlier work
T1 construct: Intracolonic infusion of a 5 μg dose of the PAR-2 agonist, SLIGRL
T1 sequence (P55086 26-399): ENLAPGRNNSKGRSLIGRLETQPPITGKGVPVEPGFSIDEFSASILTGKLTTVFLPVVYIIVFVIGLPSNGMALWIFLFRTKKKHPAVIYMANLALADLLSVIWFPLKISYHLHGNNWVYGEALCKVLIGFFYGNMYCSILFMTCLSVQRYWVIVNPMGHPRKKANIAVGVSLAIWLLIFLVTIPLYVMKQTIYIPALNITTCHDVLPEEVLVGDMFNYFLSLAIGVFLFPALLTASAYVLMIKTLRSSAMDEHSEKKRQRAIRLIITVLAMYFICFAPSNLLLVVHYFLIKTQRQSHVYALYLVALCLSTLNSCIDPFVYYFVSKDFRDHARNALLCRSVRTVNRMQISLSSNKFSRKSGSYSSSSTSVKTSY

[6] = tested on: Caco-2 cell monolayers; conditions: ZOT 0.22 to 0.89×10^−10 mol/ml, across Caco-2 cell monolayers; cited from earlier work
[7] = sCT 15 mg/kg intra-nasal with 10 mg/kg of AT1002, p<0.05

OC[C@@H](O)[C@@H](O)[C@H](O)[C@H](O)CO [Mannitol]
Papp [1]: 0.686 ± 0.057 ×10⁻⁶ cm/s

CC(C)C[C@H](NC(=O)[C@H](CCCCN)NC(=O)CNC(=O)[C@H](CC(C)C)NC(=O)[C@@H](NC(=O)[C@@H]1CSSC[C@H](N)C(=O)N[C@@H](CO)C(=O)N[C@@H](CC(N)=O)C(=O)N[C@@H](CC(C)C)C(=O)N[C@@H](CO)C(=O)N[C@@H]([C@@H](C)O)C(=O)N1)C(C)C)C(=O)N[C@@H](CO)C(=O)N[C@@H](CCC(N)=O)C(=O)N[C@@H](CCC(=O)O)C(=O)N[C@@H](CC(C)C)C(=O)N[C@@H](Cc1c[nH]cn1)C(=O)N[C@@H](CCCCN)C(=O)N[C@@H](CC(C)C)C(=O)N[C@@H](CCC(N)=O)C(=O)N[C@H](C(=O)N[C@@H](Cc1ccc(O)cc1)C(=O)N1CCC[C@H]1C(=O)N[C@@H](CCCNC(=N)N)C(=O)N[C@H](C(=O)N[C@@H](CC(N)=O)C(=O)N[C@H](C(=O)NCC(=O)N[C@@H](CO)C(=O)NCC(=O)N[C@H](C(=O)N1CCC[C@H]1C(N)=O)[C@@H](C)O)[C@@H](C)O)[C@@H](C)O)[C@@H](C)O [sCT only, Salmon calcitonin]
Tmax ([2]; Sprague-Dawley, rat, plasma, inhaled or intranasal, sCT 15 mg/kg intra-nasal alone (control), mean ± SEM, read-out: sCT Tmax (converted)): 32.5 min
Tmax ([2]; Sprague-Dawley, rat, plasma, inhaled or intranasal, sCT 15 mg/kg intra-nasal, sCT only (FIG. 7), read-out: Tmax of average plasma concentration profile of sCT (converted)): 30 min
Cmax ([2]; Sprague-Dawley, rat, plasma, inhaled or intranasal, sCT 15 mg/kg intra-nasal alone (control), mean ± SEM): 1230 ± 250 ng/mL
AUC(0-t) ([2]; Sprague-Dawley, rat, plasma, inhaled or intranasal, sCT 15 mg/kg intra-nasal alone (control), mean ± SEM, n=3-5, read-out: sCT AUC0-90 min (converted)): 997 ng·h/mL

H-FCIGRL-OH [AT1002, H-FCIGRL-OH]
inulin AUC0-360min, increase over control [3]: 292%
inulin Cmax, increase over control [3]: 315%
increase of plasma concentration of sCT vs sCT control ([2]; at 20 min, sCT 15 mg/kg intra-nasal with 10 mg/kg of AT1002, p<0.05): 1.99 fold
increase in sCT AUC0-90min to sCT control [2, 7]: 1.66 fold
increase in sCT Cmax to sCT control [2, 7]: 1.67 fold
increase of AZT levels in plasma ([4]; [3H]-AZT 120 μCi/kg intranasal, AT1002 2 mg/kg co-administered, blood at 10 or 15 min, vs AZT alone, p<0.05): about 33%
increase of saquinavir levels in plasma ([4]; [3H]-saquinavir 120 μCi/kg intranasal, in presence of AT1002 5 mg/kg vs absence): about 51%

SLIGRL
increase in the paracellular permeability of [51Cr]-EDTA [5]: 2 fold

ZOT: 44.8 kDa protein (399 amino acids) of Vibrio cholerae that reversibly opens tight junctions
enhanced transport of agents of varying molecular weights or low bioavailability [6]: up to 30 fold
